Data from patent publication US10202368B2, “CXCR7 receptor modulators” (IDORSIA PHARMACEUTICALS LTD, priority 2014, dated 2019).

The compounds below were run against CXCR7 (Homo sapiens (Human), UniProt P25106) (assay: PathHunter CHO-K1 CXCR7 β-arrestin assay (agonistic activity)). Details: β-arrestin recruitment in PathHunter CHO-K1 CXCR7 β-arrestin cells, 90 minutes at 37° C., geometric mean values.
CXCR7, sequence (P25106 whole entry): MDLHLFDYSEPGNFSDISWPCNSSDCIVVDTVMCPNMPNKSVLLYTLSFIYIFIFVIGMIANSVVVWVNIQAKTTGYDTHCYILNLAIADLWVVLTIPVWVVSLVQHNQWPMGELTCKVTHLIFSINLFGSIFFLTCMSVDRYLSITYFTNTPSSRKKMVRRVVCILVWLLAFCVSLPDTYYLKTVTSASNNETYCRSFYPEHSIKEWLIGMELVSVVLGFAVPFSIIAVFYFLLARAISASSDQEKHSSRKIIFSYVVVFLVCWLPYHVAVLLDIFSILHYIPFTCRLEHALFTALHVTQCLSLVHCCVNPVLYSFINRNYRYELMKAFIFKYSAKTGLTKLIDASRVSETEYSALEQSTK
CXCR7, sequence (P32121 whole entry partner): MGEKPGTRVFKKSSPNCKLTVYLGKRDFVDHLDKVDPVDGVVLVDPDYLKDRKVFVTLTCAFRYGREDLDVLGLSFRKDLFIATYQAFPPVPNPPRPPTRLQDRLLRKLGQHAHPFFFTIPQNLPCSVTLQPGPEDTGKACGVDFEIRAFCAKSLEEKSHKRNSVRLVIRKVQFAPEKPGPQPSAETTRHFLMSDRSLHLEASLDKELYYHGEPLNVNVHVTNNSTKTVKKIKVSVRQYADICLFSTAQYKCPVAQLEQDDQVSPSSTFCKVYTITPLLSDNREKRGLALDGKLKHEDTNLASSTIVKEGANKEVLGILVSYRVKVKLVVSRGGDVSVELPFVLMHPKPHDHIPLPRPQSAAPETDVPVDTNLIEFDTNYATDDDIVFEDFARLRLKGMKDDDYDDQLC
Assay type: cell-based
Description: The CXCI12 receptor and CXCR7 agonistic activities of the compounds of formula (I) are determined in accordance with the following experimental method.
The assay is using the PathHunter™ CHO-K1 CXCR7 β-arrestin cell line from DiscoverX. The system is based on the Enzyme Fragment Complementation Technology. Two complementing fragments of the β-galactosidase enzyme are expressed within stably transfected cells. The larger portion of β-gal, termed EA for Enzyme Acceptor, is fused to the C-terminus of b-arrestin 2. The smaller fragment, termed ProLink™ tag, is fused to CXCR7 at the C-terminus. Upon activation, b-arrestin is recruited which forces the interaction of ProLink and EA, allowing complementation of the two fragments of b-gal and the formation of a functional enzyme which is capable of hydrolysing the substrate and generating a chemiluminescent signal.
CHO-K1 CXCR7 β-arrestin cells are detached from culture dishes with a cell dissociation buffer (Invitrogen, #13151-014) and collected in growing medium (F12 HAMS 90% (v/v)/FCS 10% (v/v), Penicillin/streptomycin 1% (v/v)). 5000 cells per well (in 20 μl) are seeded in a 384 well plate (white-walled, clear bottom; BD Falcon #353274). The plate is incubated at 37° C./5% CO2 for 24 hours. Medium is then replaced by 20 μl OPTIMEM (Invitrogen #31985) for 3 to 4 hours. Test compounds are dissolved at 10 mM in DMSO and serially diluted in DMSO to 200× of the final concentration for dose response curves. Compounds are then diluted 1:33.3 in HBSS1X. 5 μl/well of HBSS1X/20 mM HEPES/0.2% BSA are added to the assay plate followed by addition of 5 μl/well of diluted compounds. CXCL12 (Peprotech #300-28A) may be used as a reference agonist. The plate is incubated for 90 minutes at 37° C. 12 μl of detection reagent (Path Hunter Detection Kit, DiscoveRx, #93-0001) is transferred to the assay plate and to the plate is incubated for 1 hour at room temperature. Luminescent signal is read in a microplate reader (FLUOstar Optima, bmg). The calculated EC50 values may fluctuate depending on the daily cellular assay performance. Fluctuations of this kind are known to those skilled in the art. Average EC50 values from several measurements are given as geometric mean values.
CN(C)CCN(Cc1ccccc1C(F)(F)F)C(=O)CNc1cccc2c1N(C)CCN(CC1CC1)C2=O [Example 42, 2-(4-Cyclopropylmethyl-1-methyl-5-oxo-2,3,4,5-tetrahydro-1H-benzo[e][1,4]diazepin-9-ylamino)-N-(2-dimethylamino-ethyl)-N-(2-trifluoromethyl-benzyl)-acetamide] showed an EC50 of 7 nM. CCN1CCOc2c(NCC(=O)N(CCN(C)C)Cc3ncccc3C)cccc2C1=O [Example 39, N-(2-Dimethylamino-ethyl)-2-(4-ethyl-5-oxo-2,3,4,5-tetrahydro-benzo[f][1,4]oxazepin-9-ylamino)-N-(3-methyl-pyridin-2-ylmethyl)-acetamide] was tested, and the EC50 was 400 nM. In the case of CCN1CCOc2c(NCC(=O)N(CCN(C)C)Cc3ncccc3C(F)(F)F)cccc2C1=O [Example 58, N-(2-Dimethylamino-ethyl)-2-(4-ethyl-5-oxo-2,3,4,5-tetrahydro-benzo[f][1,4]oxazepin-9-ylamino)-N-(3-trifluoromethyl-pyridin-2-ylmethyl)-acetamide], the EC50 is reported as 74 nM. In the case of Cc1ccnc(CN(CCN(C)C)C(=O)CNc2cccc3c2OCCN(CC(C)C)C3)c1 [Example 14, N-(2-Dimethylamino-ethyl)-2-(4-isobutyl-2,3,4,5-tetrahydro-benzo[f][1,4]oxazepin-9-ylamino)-N-(4-methyl-pyridin-2-ylmethyl)-acetamide], the EC50 is reported as 76 nM. For CC(C)CN1CCOc2c(cccc2NCC(=O)N(CCN(C)C)Cc2ccccc2C(F)(F)F)C1 [Example 1, N-(2-Dimethylamino-ethyl)-2-(4-isobutyl-2,3,4,5-tetrahydro-benzo[f][1,4]oxazepin-9-ylamino)-N-(2-trifluoromethyl-benzyl)-acetamide], the EC50 was 8 nM. For CC(C)CN1CCOc2c(cccc2NCC(=O)N(CCN(C)C)Cc2ncccc2Cl)C1 [Example 3, N-(3-Chloro-pyridin-2-ylmethyl)-N-(2-dimethylamino-ethyl)-2-(4-isobutyl-2,3,4,5-tetrahydro-benzo[f][1,4]oxazepin-9-ylamino)-acetamide], the EC50 was 9 nM. O=C(CNc1cccc2c1OCCN(CC1CC1)C2)N(CCN1CCCC1)Cc1ncccc1C(F)(F)F [Example 82, 2-(4-Cyclopropylmethyl-2,3,4,5-tetrahydro-benzo[f][1,4]oxazepin-9-ylamino)-N-(2-pyrrolidin-1-yl-ethyl)-N-(3-trifluoromethyl-pyridin-2-ylmethyl)-acetamide] was tested, and the EC50 was 2 nM. With COc1ccnc(CN(CCN(C)C)C(=O)CNc2cccc3c2OCCN(CC(C)C)C3)c1 [Example 9, N-(2-Dimethylamino-ethyl)-2-(4-isobutyl-2,3,4,5-tetrahydro-benzo[f][1,4]oxazepin-9-ylamino)-N-(4-methoxy-pyridin-2-ylmethyl)-acetamide] the EC50 was 200 nM. CC(C)NCCN(Cc1ccccc1C(F)(F)F)C(=O)CNc1cccc2c1OCC(=O)N(CC1CC1)C2 [Example 68, 2-(4-Cyclopropylmethyl-3-oxo-2,3,4,5-tetrahydro-benzo[f][1,4]oxazepin-9-ylamino)-N-(2-isopropylamino-ethyl)-N-(2-trifluoromethyl-benzyl)-acetamide] gave an EC50 of 15 nM. CC(C)NCCN(Cc1ccccc1C(F)(F)F)C(=O)CNc1cccc2c1OCCN(CC1CC1)C2=O [Example 62, 2-(4-Cyclopropylmethyl-5-oxo-2,3,4,5-tetrahydro-benzo[f][1,4]oxazepin-9-ylamino)-N-(2-isopropylamino-ethyl)-N-(2-trifluoromethyl-benzyl)-acetamide] was tested, and the EC50 was 5 nM. CC(C)CN1CCOc2c(cccc2NCC(=O)N(CCN(C)C)Cc2cccc(Br)c2)C1 [Example 8, N-(3-Bromo-benzyl)-N-(2-dimethylamino-ethyl)-2-(4-isobutyl-2,3,4,5-tetrahydro-benzo[f][1,4]oxazepin-9-ylamino)-acetamide] showed an EC50 of 36 nM. Work on CCN1CCOc2c(NCC(=O)N(CCN3CCCC3)Cc3ncccc3C(F)(F)F)cccc2C1=O [Example 57, 2-(4-Ethyl-5-oxo-2,3,4,5-tetrahydro-benzo[f][1,4]oxazepin-9-ylamino)-N-(2-pyrrolidin-1-yl-ethyl)-N-(3-trifluoromethyl-pyridin-2-ylmethyl)-acetamide] yielded an EC50 of 60 nM. CC(C)CN1CCOc2c(cccc2NCC(=O)N(CCN2CCCC2=O)Cc2ccccc2C(F)(F)F)C1 [Example 11, 2-(4-Isobutyl-2,3,4,5-tetrahydro-benzo[f][1,4]oxazepin-9-ylamino)-N-[2-(2-oxo-pyrrolidin-1-yl)-ethyl]-N-(2-trifluoromethyl-benzyl)-acetamide] was tested, and the EC50 was 190 nM. For CCN1CCOc2c(NCC(=O)N(CCN(C)C)Cc3ncccc3Cl)cccc2C1=O [Example 60, N-(3-Chloro-pyridin-2-ylmethyl)-N-(2-dimethylamino-ethyl)-2-(4-ethyl-5-oxo-2,3,4,5-tetrahydro-benzo[f][1,4]oxazepin-9-ylamino)-acetamide], the EC50 was 260 nM. CC(C)NCCN(Cc1ncccc1C(F)(F)F)C(=O)CNc1cccc2c1CN(CC1CC1)CCO2 [Example 90, 2-(4-Cyclopropylmethyl-2,3,4,5-tetrahydro-benzo[f][1,4]oxazepin-6-ylamino)-N-(2-isopropylamino-ethyl)-N-(3-trifluoromethyl-pyridin-2-ylmethyl)-acetamide] was tested, and the EC50 was 7 nM. CN(C)CCN(Cc1ccccc1C(F)(F)F)C(=O)CNc1cccc2c1CCN(C(=O)C(F)(F)F)CC2 [Example 26, N-(2-Dimethylamino-ethyl)-2-[3-(2,2,2-trifluoro-acetyl)-2,3,4,5-tetrahydro-1H-benzo[d]azepin-6-ylamino]-N-(2-trifluoromethyl-benzyl)-acetamide] gave an EC50 of 4 nM. CCN1CCOc2c(cccc2NCC(=O)N(CCN(C)C)Cc2ncccc2C)C1 [Example 73, N-(2-Dimethylamino-ethyl)-2-(4-ethyl-2,3,4,5-tetrahydro-benzo[f][1,4]oxazepin-9-ylamino)-N-(3-methyl-pyridin-2-ylmethyl)-acetamide] was tested, and the EC50 was 59 nM. Compound CC(C)(C)NCCN(Cc1ccccc1C(F)(F)F)C(=O)CNc1cccc2c1OCCN(CC1CC1)C2=O [Example 63, N-(2-tert-Butylamino-ethyl)-2-(4-cyclopropylmethyl-5-oxo-2,3,4,5-tetrahydro-benzo[f][1,4]oxazepin-9-ylamino)-N-(2-trifluoromethyl-benzyl)-acetamide] has an EC50 of 2 nM. CC(C)N(CCN(Cc1ccccc1C(F)(F)F)C(=O)CNc1cccc2c1C(=O)N(CC1CC1)CCO2)C(=O)OC(C)(C)C [Example 35, {2-[[2-(4-Cyclopropylmethyl-5-oxo-2,3,4,5-tetrahydro-benzo[f][1,4]oxazepin-6-ylamino)-acetyl]-(2-trifluoromethyl-benzyl)-amino]-ethyl}-isopropyl-carbamic acid tert-butyl ester] showed an EC50 of 420 nM. Compound CCN1CCOc2c(cccc2NCC(=O)N(CCN(C)C(=O)OC(C)(C)C)Cc2ncccc2Cl)C1 [Example 78, (2-{(3-Chloro-pyridin-2-ylmethyl)-[2-(4-ethyl-2,3,4,5-tetrahydro-benzo[f][1,4]oxazepin-9-ylamino)-acetyl]-amino}-ethyl)-methyl-carbamic acid tert-butyl ester] has an EC50 of 240 nM. Work on CC(C)NCCN(Cc1ccccc1C(F)(F)F)C(=O)CNc1cccc2c1C(=O)N(CC1CC1)CCO2 [Example 34, 2-(4-Cyclopropylmethyl-5-oxo-2,3,4,5-tetrahydro-benzo[f][1,4]oxazepin-6-ylamino)-N-(2-isopropylamino-ethyl)-N-(2-trifluoromethyl-benzyl)-acetamide] yielded an EC50 of 5 nM. In the case of CC(C)CN1CCOc2c(cccc2NCC(=O)N(CCN2CCOCC2)Cc2ccccc2C(F)(F)F)C1 [Example 16, 2-(4-Isobutyl-2,3,4,5-tetrahydro-benzo[f][1,4]oxazepin-9-ylamino)-N-(2-morpholin-4-yl-ethyl)-N-(2-trifluoromethyl-benzyl)-acetamide], the EC50 is reported as 74 nM. O=C(CNc1cccc2c1OCCN(CC1CC1)C2=O)N(CCN1CCCC1)Cc1ncccc1C(F)(F)F [Example 64, 2-(4-Cyclopropylmethyl-5-oxo-2,3,4,5-tetrahydro-benzo[f][1,4]oxazepin-9-ylamino)-N-(2-pyrrolidin-1-yl-ethyl)-N-(3-trifluoromethyl-pyridin-2-ylmethyl)-acetamide] was tested, and the EC50 was 7 nM. CN(C)CCN(Cc1ccccc1Cl)C(=O)CNc1cccc2c1C(=O)N(CC1CC1)CCO2 [Example 32, N-(2-Chloro-benzyl)-2-(4-cyclopropylmethyl-5-oxo-2,3,4,5-tetrahydro-benzo[f][1,4]oxazepin-6-ylamino)-N-(2-dimethylamino-ethyl)-acetamide] gave an EC50 of 15 nM.
